From patent US11414437B2, “Borate compound, and synthesis method therefor and uses thereof” (CHENGDU ORIGIN BIOTECHNOLOGY LIMITED COMPANY, priority 2017, dated 2022)
Counter-ions that a name gives are not always drawn. Like-named read-outs stand apart in the source and are kept apart here.

Key:
[1] = system: SD rats; conditions: for maximum tolerance dose: female rats, single intragastric dose
From the text: The test was a single-dose toxicity test of SD rats by intragastric administration through mouth.

[2] = system: MM.1S (human multiple myeloma cell); assay: In vitro activity test (CCK-8 cell growth inhibition); assay type: cell-based; conditions: MM1.S, 48 hours incubation, read-out: MM.IS cell GI50 (μM) value
Description: (§1) Cells RPMI-8226 (human multiple myeloma cell) and MM.1S (human multiple myeloma cell) were cultured in a RPMI 1640 medium containing 10% fetal bovine serum at 37[…] under 5% CO2 to a logarithmic growth phase. The cells were respectively inoculated into a 96-well culture plate in a quantity of 3×10^4/well. After culturing for 24 hours at 37[…] under 5% CO2, a solvent control DMSO (dimethyl sulfoxide) or a tested compound (the tested compound taken 0.3 μM as an initial concentration, was diluted 3 times each time, and was diluted 5 times in total to obtain 6 concentration gradients) dissolved in the DMSO was added into the cells. The tested compound was incubated with the cells for 48 hours at 37[…] under 5% CO2. A CCK-8 reagent was added into each well, and incubated at 37 °C for 2 hours according to a reagent specification, and an optical density value of each well was read at a wavelength of 450 nm using a spectrophotometer.
(§2) An optical density value of the cells when the medicine acted for 0 hour was set as a Tz value, which represented a value of the cells when the medicine was added. The optical density value of the cells when the solvent control DMSO acted for 48 hours was set as a C value; and the optical density value of the cells when the tested compound acted for 48 hours was set as a Ti value. According to a method proposed by the NIH-NCI (National Institutes of Health-National Cancer Institute) of the United States, a response of the cells to a medicine was calculated: when Ti≥Tz, the response was [(Ti−Tz)/(C−Tz)]×100; and when Ti<Tz, the response was [(Ti−Tz)/Tz]×100. According to the calculation above, a GI50 value (a concentration of the tested compound required when a cell growth inhibition rate was 50%) was calculated by the 4 Parameter Logistic Model in the XLfit software.

[3] = system: RPMI-8226 (human multiple myeloma cell); assay: as above; assay type: cell-based; conditions: 48 hours incubation
Description: as §1, §2

[4] = system: MM.1S human multiple myeloma SCID mouse transplanted tumor; assay: Pharmacodynamic test, SCID mouse transplanted tumor model; assay type: in vivo; conditions: 0.0166 mmol/kg intragastric; for Average tumor relative volume RVT5 / Average tumor relative volume RVT8 / Average tumor relative volume RVT12 / Average tumor relative volume RVT15 / Average tumor relative volume RVT18: twice a week; for Average tumor relative volume RVT5 / Average tumor relative volume RVT8 / Average tumor relative volume RVT12 / Average tumor relative volume RVT15 / Average tumor relative volume RVT18 / Tumor weight (g): X ± SD; for Tumor weight (g): after the 18th day
Description: In the experiment, a SCID mouse transplanted tumor model of a human multiple myeloma cell line MM.1S was used. Specific modeling steps were as follows: frozen MM.1S cells were resuscitated and cultured in vitro according to a routine, and the cells were collected in a logarithmic growth phase, and diluted with PBS to form a tumor cell suspension with a concentration of 5×10^7/ml. […] About 1 week to 2 weeks after injection, the mass was palpable in axillary, and in vivo passage was performed when a tumor volume was larger than 500 mm^3. After the mouse was killed by a neck pulling method, a body surface was disinfected, skin was cut open, aseptic operation was performed, a tumor tissue was peeled off from an axillary subcutaneous tissue, a fibrous capsule was removed, and the tumor was taken out. The tumor was washed clean in normal saline, and then cut, and after removing the central necrotic part, the tumor tissue with good growth, reddish color and fish flesh shape was selected, then was cut into 1 mm×1 mm×1 mm small pieces, and placed in normal saline for later use. The cut tumor was placed in a mouth of a No. 18 trocar, iodized cotton was used to disinfect the side of the armpit close to the back of the mouse, and local inoculation was performed. The transplanted tumor used in the test was the 4th generation of in vivo passage. When the tumor volume of most SCID mice of in vivo passage was larger than 100 mm^3, the tumor volume was measured and calculated, and the mice were randomly grouped according to the tumor volume.
The administration mode was intragastric administration through mouth, with an administration volume of 10 ml/kg. The model control group was given the same volume of solvent intragastrically. The mice were all intragastrically administrated through mouth twice a week for a total of 5 times, i.e., the mice were administrated at the 1st, 5th, 8th, 12th and 15th days of the experiment, with a duration of 18 days.
Doses of different tested samples were equimolar, with a specific dose of 0.0166 mmol/kg; and the model control group was only given normal saline. The medicines were 8b and 8l, as well as Ixazomib Citrate (MLN9708) and Ixazomib (MLN2238).
On the 5th, 8th, 12th, 15th and 18th days after administration, a short diameter (a) and a long diameter (b) of the tumor of each mouse were measured with a vernier caliper, and the tumor volume was calculated according to a formula (a^2×b)/2. A relative tumor volume (RTV) was calculated based on the tumor volume measured and calculated, RTV=Vt/V0. V0 was the tumor volume at random grouping (i.e., d0) and Vt was the tumor volume at each measurement (i.e., dn). A relative tumor proliferation rate of an anti-tumor activity evaluation index was calculated according to the following formula: relative tumor proliferation rate T/C (%): […]
(Note: TRTV was a RTV of the treatment group; and CRTV was a RTV of the model control group. An evaluation standard of a curative effect was T/C %≤40%, and the medicine was effective when P<0.05 after statistical treatment).
After weighing and measuring the tumor on the 18th day, all animals were sacrificed, and the tumor was taken and weighed.

[5] = dose 1, 0.001108 mmol/kg single intragastric dose, 6 female rats, 14 days observation
[6] = dose 1, 0.001108 mmol/kg single intragastric dose, 6 male rats, 14 days observation
[7] = dose 2, 0.001662 mmol/kg single intragastric dose, 6 female rats, 14 days observation
[8] = dose 2, 0.001662 mmol/kg single intragastric dose, 6 male rats, 14 days observation
[9] = dose 3, 0.002216 mmol/kg single intragastric dose, 6 female rats, 14 days observation
[10] = dose 3, 0.002216 mmol/kg single intragastric dose, 6 male rats, 14 days observation
[11] = dose 4, 0.00277 mmol/kg single intragastric dose, 6 female rats, 14 days observation
[12] = dose 4, 0.00277 mmol/kg single intragastric dose, 6 male rats, 14 days observation
[13] = female, rat, in vivo, 0.001108 mmol/kg, 14 days
[14] = male, rat, in vivo, 0.001108 mmol/kg, 14 days
[15] = male, rat, in vivo, 0.002216 mmol/kg, 14 days

SMILES | Female Suvival [1, 5] | Male Suvival [1, 6] | Female Death [1, 7] | Female Suvival [1, 7] | Male Death [1, 8] | Male Suvival [1, 8] | Female Death [1, 11] | Female Suvival [1, 11] | Male Death [1, 12] | Male Suvival [1, 12] | Relative tumor proliferation rate T/C(%) ([4]; 5th day) | Average tumor relative volume RVT5 ([4]; 5th day) | Relative tumor proliferation rate T/C(%) ([4]; 8th day) | Average tumor relative volume RVT8 ([4]; 8th day) | Relative tumor proliferation rate T/C(%) ([4]; 12th day) | Average tumor relative volume RVT12 ([4]; 12th day) | Relative tumor proliferation rate T/C(%) ([4]; 15th day) | Average tumor relative volume RVT15 ([4]; 15th day) | Relative tumor proliferation rate T/C(%) ([4]; 18th day) | Average tumor relative volume RVT18 ([4]; 18th day) | further results
CC(C)C[C@H](NC(=O)CNC(=O)c1cc(Br)ccc1Cl)B1OCCNCCO1 [compound 8d] | 6 | 6 | 2 | 4 | 0 | 6 | 6 | 0 | 0 | 6 | – | – | – | – | – | – | – | – | – | – | Female Death [1, 9]: 5; Female Suvival [1, 9]: 1; Male Suvival [1, 10]: 6; Female Death [1, 13]: 0; Male Death [1, 14]: 0; Male Death [1, 15]: 0
CC(C)C[C@H](NC(=O)CNC(=O)c1cc(Br)ccc1Cl)B1OCCNCCO1 [drawing 41] | – | – | – | – | – | – | – | – | – | – | – | – | – | – | – | – | – | – | – | – | GI50 [2]: 0.00713 µM; GI50 [3]: 0.00651 µM
CC(C)C[C@H](NC(=O)CNC(=O)c1cc(Cl)ccc1Cl)B1OC(=O)C(CC(=O)O)(CC(=O)O)O1 [Ixazomib (MLN9708), Ixazomib Citrate] | 6 | 6 | 1 | 5 | 0 | 6 | 6 | 0 | 0 | 6 | 82.56^★★ % | 1.431 ± 0.452^★★ | 20.94% | 0.571 ± 0.305 | 6.13^★★ % | 0.245 ± 0.123^★★▴▴ | 4.42^★★ % | 0.214 ± 0.133^★★▴▴ | 3.06^★★ % | 0.205 ± 00.151^★★▴▴ | Tumor weight (g) [4]: 0.284 ± 0.312^★ g; Female Death [1, 5]: 0; Male Death [1, 6]: 0; maximum tolerance dose [1]: 0.001108 mmol/kg; Female Death ([1]; rat, in vivo): 3; Female Suvival ([1]; rat, in vivo): 3; Male Death ([1]; rat, in vivo): 0; Male Suvival ([1]; rat, in vivo): 6
CC(C)C[C@H](NC(=O)CNC(=O)c1cc(Cl)ccc1Cl)B1OC(=O)[C@@H](c2ccccc2)O1 [compound 8l, 2-chloro-5-chloro-N-[2-({(1R)-3-methyl-1-[(5R)-4-oxo-5-phenyl-1,3,2-dioxaborolan-2-yl]butyl}amino)-2-oxoethyl]benzamide] | 6 | 6 | 1 | 5 | 0 | 6 | 6 | 0 | 0 | 6 | 103.30^★★ % | 1.791 ± 0.540^★★ | 63.82^★★ % | 1.739 ± 0.783^★★▴ | 36.37^★★ % | 1.451 ± 0.676^★★▴▴ | 23.24^★★ % | 1.127 ± 0.667^★★▴▴ | 8.38^★ % | 0.561 ± 0.468^★★▴▴ | Tumor weight (g) [4]: 0.560 ± 0.566^★ g; Female Death [1, 9]: 2; Female Suvival [1, 9]: 4; Male Suvival [1, 10]: 6; maximum tolerance dose [1]: 0.001108 mmol/kg; Female Death [1, 13]: 0; Male Death [1, 14]: 0; Male Death [1, 15]: 0
CC(C)C[C@H](NC(=O)CNC(=O)c1cc(Cl)ccc1Cl)B(O)O [Ixazomib (MLN2238), Ixazomib] | 6 | 6 | 2 | 4 | 0 | 6 | 6 | 0 | 0 | 6 | 87.8^★★ % | 1.522 ± 0.273^★★ | 45.44^★ % | 1.238 ± 0.841^★▴▴ | 22.51^★★ % | 0.898 ± 0.749^★★▴▴ | 10.8^★★ % | 0.489 ± 0.343^★★▴▴ | 2.43^★★ % | 0.163 ± 0.132^★★▴▴ | Tumor weight (g) [4]: 0.374 ± 0.291^★★ g; Female Death [1, 5]: 0; Male Death [1, 6]: 0; maximum tolerance dose [1]: 0.001108 mmol/kg; Female Death ([1]; rat, in vivo): 4; Female Suvival ([1]; rat, in vivo): 2; Male Death ([1]; rat, in vivo): 0; Male Suvival ([1]; rat, in vivo): 6
